Like-named read-outs stand apart in the source and are kept apart here.
Experiments:
Assay type in all cases: cell-based, human
MDA-MB-231 (breast) = experiment: Cell growth inhibition assay (SRB), MDA-MB-231; conditions: SRB method, 96 hours incubation, MDA-MB-231 (breast), read-out: IC50, MDA-MB-231
Protocol: (§1) OVCAR-3, MCF-7, PC3, HepG2, A549, HT-29 and MKN-45 were grown in RPMI1640 medium (Invitrogen, Carlsbad, Calif.) supplemented with 10% fetal bovine serum (‘FBS’), 1 mM sodium pyruvate, 10 mM HEPES and 100 U/ml penicillin and […] streptomycin (‘P/S’). MDA-MB-231, HCT116, UMRC2, Caki-1, PANC-1 and HEK293 cells were maintained in Dulbecco's modified Eagle's medium (‘DMEM’, Invitrogen) supplemented with 10% FBS, P/S, 10 mM HEPES and 2 mM L-glutamine. HUVEC was maintained in M199 supplemented with basic fibroblast growth factor (‘bFGF’) […] and FBS 20%. All cells were incubated at 37° C. under humidified 5% CO2.
(§2) The growth inhibition of the substituted quinoxalin-piperazine compounds against a variety of human tumor cells was evaluated. The relative importance of particular substituent groups on the compounds was also studied. The substituted piperazine derivative compounds, prepared as described above, were tested, along with DMSO as a control.
(§3) The growth inhibition assay of various compounds against human tumor cell lines was performed using the Sulforhodamine B (‘SRB’) method (Skehan et al., J. National Cancer Institute, 1990, 82, 1107-1112). […] Triplicate wells were used for each treatment. The cells were incubated with the various compounds for 96 hours at 37° C. in a humidified 5% CO2 atmosphere. After 96-hour incubation, cells were fixed with 10% trichloroacetic acid (‘TCA’), incubated for 1 hour at 4° C., and washed 3 times with tap water. Subsequently cells were stained with 0.4% sulforhodamine B in 1% acetic acid for 30 minutes, washed 4 times with 1% acetic acid, and air-dried again. After 5 minutes agitation in 10 mM Tris solution, the absorbance of each well was measured at 530 nm using Benchmark Plus Microplate reader (Bio-Rad Laboratories, Hercules, Calif.).
(§4) To translate the OD530 values into the number of live cells in each well, the OD530 values were compared to those on standard OD530-versus-cell number curves generated for each cell line. The percent survival was calculated using the formula: % Survival=live cell number[test]/live cell number[control]×100
(§5) The IC50 values were calculated by non-linear regression analysis.

UMRC2 (kidney) = experiment: Cell growth inhibition assay (SRB), UMRC2; conditions: SRB method, 96 hours incubation, UMRC2 (kidney), read-out: IC50, UMRC2
Protocol: as §1, §2, §3, §4, §5

PANC-1 (pancreas) = experiment: Cell growth inhibition assay (SRB), PANC-1; conditions: SRB method, 96 hours incubation, PANC-1 (pancreas), read-out: IC50, PANC-1
Protocol: as §1, §2, §3, §4, §5

COc1nc2cc(F)c(F)cc2nc1NC(=O)N1CCN(c2cc(C)cc(C)c2)CC1 [Compound 172, 1-[(6,7-Difluoro-2-methoxyquinoxalin-3-yl)aminocarbonyl]-4-(3,5-dimethylphenyl)piperazine]
IC50 (MDA-MB-231 (breast); Homo sapiens): 700 nM | IC50 (UMRC2 (kidney); Homo sapiens): 560 nM | IC50 (PANC-1 (pancreas); Homo sapiens): 1000 nM

COc1cc(OC)cc(N2CCN(C(=O)Nc3nc4cc(Cl)c(Cl)cc4nc3OC)CC2)c1 [Compound 177, 1-[(6,7-Dichloro-2-methoxyquinoxalin-3-yl)aminocarbonyl]-4-(3,5-dimethoxyphenyl)piperazine]
IC50 (MDA-MB-231 (breast); Homo sapiens): 1450 nM | IC50 (UMRC2 (kidney); Homo sapiens): 580 nM | IC50 (PANC-1 (pancreas); Homo sapiens): 1160 nM

COc1cc(OC)cc(N2CCN(C(=O)Nc3nc4cc(OC)c(OC)cc4nc3OC)CC2)c1 [Compound 191, 1-[(2,6,7-Trimethoxyquinoxalin-3-yl)aminocarbonyl]-4-(3,5-dimethoxyphenyl)piperazine]
IC50 (MDA-MB-231 (breast); Homo sapiens): 690 nM | IC50 (UMRC2 (kidney); Homo sapiens): 490 nM | IC50 (PANC-1 (pancreas); Homo sapiens): 900 nM

COc1cc2nc(NC(=O)N3CCN(c4cc(C)cc(C)c4)CC3)c(OC)nc2cc1OC [Compound 193, 1-[(2,6,7-Trimethoxyquinoxalin-3-yl)aminocarbonyl]-4-(3,5-dimethylphenyl)piperazine]
IC50 (MDA-MB-231 (breast); Homo sapiens): 650 nM | IC50 (UMRC2 (kidney); Homo sapiens): 470 nM | IC50 (PANC-1 (pancreas); Homo sapiens): 690 nM

COc1cc2nc(NC(=O)N3CCN(c4cccc(C(F)(F)F)c4)CC3)c(OC)nc2cc1OC [Compound 194, 1-[(2,6,7-Trimethoxyquinoxalin-3-yl)aminocarbonyl]-4-(3-trifluorotolyl)piperazine]
IC50 (MDA-MB-231 (breast)): 750 nM | IC50 (UMRC2 (kidney)): 790 nM | IC50 (PANC-1 (pancreas)): 1400 nM

COc1cc2nc(NC(=O)N3CCN(c4cccc(Br)c4)CC3)c(OC)nc2cc1OC [Compound 196, 1-[(2,6,7-Trimethoxyquinoxalin-3-yl)aminocarbonyl]-4-(3-bromophenyl)piperazine]
IC50 (MDA-MB-231 (breast); Homo sapiens): 720 nM | IC50 (UMRC2 (kidney); Homo sapiens): 650 nM | IC50 (PANC-1 (pancreas); Homo sapiens): 1050 nM

From patent publication US8598173B2, “1-[(6,7-substituted alkoxyquinoxalinyl)aminocarbonyl]-4-(hetero)arylpiperazine derivatives for treating tumors” (Korea Research Institute of Chemical Technology, priority 2004, dated 2013)
